Results from the NIST ThermoML archive (doi:10.1021/je700140j).

Assay: xn = mol fraction of the nth substance listed
Settings: for surface tension liquid-gas: Ring tensiometer; for mass density / viscosity: 100.8 kPa, Liquid

OCc1ccccc1 [benzenemethanol] + CC(C)O
Settings | mass density, 298.15 K [kg/m3] | mass density, 308.15 K [kg/m3] | surface tension liquid-gas, 298.15 K [mN/m] | surface tension liquid-gas, 308.15 K [mN/m] | viscosity, 298.15 K [mPa·s] | viscosity, 308.15 K [mPa·s]
x2 = 0 | 1041.4 | 1033.6 | 38.63 | 37.73 | 5.555 | 4.093
x2 = 0.05 | 1032.82 | 1025.02 | 37.5 | 36.66 | 5.299 | 3.91
x2 = 0.1 | 1023.74 | 1015.91 | 36.4 | 35.63 | 5.053 | 3.73
x2 = 0.15 | 1014.27 | 1006.4 | 35.35 | 34.6 | 4.799 | 3.558
x2 = 0.2 | 1004.39 | 996.5 | 34.3 | 33.59 | 4.559 | 3.389
x2 = 0.25 | 994.22 | – | 33.27 | 32.58 | 4.332 | –
x2 = 0.3 | 983.63 | – | 32.27 | 31.58 | 4.116 | –
x2 = 0.35 | 972.64 | – | 31.27 | 30.58 | 3.911 | –
x2 = 0.4 | 961.2 | – | 30.3 | 29.6 | 3.714 | –
x2 = 0.45 | 949.36 | – | 29.36 | 28.66 | 3.523 | –
x2 = 0.5 | 937.02 | – | 28.45 | 27.75 | 3.335 | –
x2 = 0.55 | 924.21 | – | 27.63 | 26.93 | 3.169 | –
x2 = 0.6 | 910.83 | – | 26.83 | 26.15 | 3.01 | –
x2 = 0.65 | 896.91 | – | 26.05 | 25.38 | 2.858 | –
x2 = 0.7 | 882.44 | – | 25.28 | 24.61 | 2.715 | –
x2 = 0.75 | 867.32 | – | 24.53 | 23.85 | 2.58 | –
x2 = 0.8 | 851.54 | – | 23.78 | 23.1 | 2.46 | –
x2 = 0.85 | 835.11 | – | 23.05 | 22.35 | 2.346 | –
x2 = 0.9 | 817.95 | – | 22.33 | 21.6 | 2.251 | –
x2 = 0.95 | 800 | – | 21.61 | 20.85 | 2.148 | –
